Measured values published in patent US20250163119A1, “COMPOUNDS FOR THE TREATMENT OF DIABETES OR OBESITY” (Eli Lilly and Company, priority 2023, published 2025).
Where “and” joins values, the source holds several entries; their conditions need not be identical. Equal entries are not always repeated. *1 amine or outer side, *2 acyl side, *3 side chain or, on linkers, in order; H or OH if unused. Side-chain parts run from the residue outwards. [ ]: non-standard residue; d: D form. The star is where a group is joined. C20 diacid = O=C(O)CCCCCCCCCCCCCCCCCCC(=O)*; γGlu = O=C(O)[C@H](CCC(=O)[*:2])N[*:1]; εLys = N[C@@H](CCCCN[*:1])C(=O)[*:2]; pGlu = O=C1CC[C@@H](C(=O)O)N1; αMeL = CC(C)C[C@](C)(N)C(=O)O; AEEA = NCCOCCOCC(=O)O; Aib = CC(C)(N)C(=O)O

Experiments:
[1] = Pharmacokinetics in Yucatan mini-pigs, single subcutaneous or intravenous dose; assay type: in vivo
Outline: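 Male mini-pigs received one SC or IV dose (19 or 99 nmol/kg) in 40 mM Tris-HCl 5% D-mannitol, pH 8. Blood sampled 0.083 (IV only) to 504 h postdose. Plasma levels measured by LC/MS after extraction and SPE, Orbitrap detection.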

[2] = Pharmacokinetics in Sprague Dawley rats, single subcutaneous or intravenous dose (incl. 10, 30, 100 nmol/kg dose response); assay type: in vivo
[3] = male Yucatan pigs, single subcutaneous dose 18 nmol/kg, individual animal
[4] = male, Yucatan mini-pig, minipig, plasma, iv, 18 nmol/kg, single intravenous dose 18 nmol/kg, individual animal
[5] = male, Yucatan mini-pig, minipig, plasma, iv, 18 nmol/kg, single intravenous dose 18 nmol/kg, mean
[6] = single intravenous dose 18 nmol/kg, male Yucatan pigs, individual animal
[7] = dose response, single subcutaneous dose 10 nmol/kg, male Sprague Dawley rats, individual animal
[8] = dose response, single subcutaneous dose 30 nmol/kg, male Sprague Dawley rats, individual animal
[9] = dose response, single subcutaneous dose 100 nmol/kg, male Sprague Dawley rats, individual animal
[10] = male Sprague Dawley rats, single intravenous dose 183 nmol/kg, individual animal
[11] = male, Sprague Dawley, rat, plasma, iv, 183 nmol/kg, single intravenous dose 183 nmol/kg, Mean
[12] = male, Sprague Dawley, rat, plasma, iv, 183 nmol/kg, single intravenous dose 183 nmol/kg, individual animal
[13] = single subcutaneous dose 183 nmol/kg, male Sprague Dawley rats, individual animal

AUC0-inf ([1]; Yucatan mini-pig, minipig, plasma, sc, male Yucatan pigs, single subcutaneous dose 18 nmol/kg, Mean, read-out: AUC0-inf): 22.5 µM·h | Cmax ([1]; Yucatan mini-pig, minipig, plasma, sc, male Yucatan pigs, single subcutaneous dose 18 nmol/kg, Mean, read-out: Cmax): 154 nM | AUC0-inf [1, 3]: 23.9 µM·h and 21 µM·h | CL/F [1, 3]: 0.886 mL/h/kg | Cmax [1, 3]: 165 nM and 143 nM | T1/2 [1, 3]: 85.8 h | Tmax [1, 3]: 6.0 h | clearance [1, 4]: 0.82 mL/h/kg | half-life [1, 4]: 90.1 h | clearance [1, 5]: 0.733 mL/h/kg | half-life [1, 5]: 95.6 h | half-life ([1]; male, Yucatan mini-pig, minipig, plasma, sc, 18 nmol/kg, single subcutaneous dose 18 nmol/kg, Mean): 82.5 h | CL/F ([1]; male, Yucatan mini-pig, minipig, plasma, sc, 18 nmol/kg, single subcutaneous dose 18 nmol/kg, Mean, read-out: CL/F (converted)): 0.832 mL/h/kg | Tmax ([1]; male, Yucatan mini-pig, minipig, plasma, sc, 18 nmol/kg, single subcutaneous dose 18 nmol/kg, Mean, read-out: Tmax): 15 h | half-life ([1]; male, Yucatan mini-pig, minipig, plasma, sc, 18 nmol/kg, single subcutaneous dose 18 nmol/kg, individual animal): 79.1 h | CL/F ([1]; male, Yucatan mini-pig, minipig, plasma, sc, 18 nmol/kg, single subcutaneous dose 18 nmol/kg, individual animal, read-out: CL/F (converted)): 0.777 mL/h/kg | AUC0-inf ([1]; minipig, plasma, single intravenous dose 18 nmol/kg, male Yucatan pigs, mean, read-out: AUC0-inf): 25.3 µM·h | C0 ([1]; minipig, plasma, single intravenous dose 18 nmol/kg, male Yucatan pigs, mean, read-out: C0): 418 nM | AUC0-inf [1, 6]: 22.3 µM·h and 28.3 µM·h | C0 [1, 6]: 373 nM and 462 nM | CL [1, 6]: 0.646 mL/h/kg | T1/2 [1, 6]: 101 h | CL/F [2, 7]: 3.60 mL/h/kg and 3.54 mL/h/kg | T1/2 [2, 7]: 23.1 h and 41.5 h | CL/F [2, 8]: 3.62 mL/h/kg and 4.25 mL/h/kg | T1/2 [2, 8]: 33.6 h and 24.1 h | CL/F [2, 9]: 3.91 mL/h/kg | T1/2 [2, 9]: 25.9 h and 30.7 h | CL [2, 10]: 2.30 mL/h/kg and 1.98 mL/h/kg | T1/2 [2, 10]: 21.3 h and 22.9 h | clearance [2, 11]: 2.12 mL/h/kg | half-life [2, 11]: 23 h | clearance [2, 12]: 2.07 mL/h/kg | half-life [2, 12]: 24.7 h | half-life ([2]; male, Sprague Dawley, rat, plasma, sc, 10 nmol/kg, dose response, single subcutaneous dose 10 nmol/kg, individual animal): 30.4 h | CL/F ([2]; male, Sprague Dawley, rat, plasma, sc, 10 nmol/kg, dose response, single subcutaneous dose 10 nmol/kg, individual animal, read-out: CL/F (converted)): 3.75 mL/h/kg | Tmax ([2]; male, Sprague Dawley, rat, plasma, sc, 10 nmol/kg, dose response, single subcutaneous dose 10 nmol/kg, individual animal, read-out: Tmax): 24 h | half-life ([2]; male, Sprague Dawley, rat, plasma, sc, 10 nmol/kg, dose response, single subcutaneous dose 10 nmol/kg, mean): 31.7 h | CL/F ([2]; male, Sprague Dawley, rat, plasma, sc, 10 nmol/kg, dose response, single subcutaneous dose 10 nmol/kg, mean, read-out: CL/F (converted)): 3.63 mL/h/kg | Tmax ([2]; male, Sprague Dawley, rat, plasma, sc, 10 nmol/kg, dose response, single subcutaneous dose 10 nmol/kg, mean, read-out: Tmax): 24 h | half-life ([2]; male, Sprague Dawley, rat, plasma, sc, 30 nmol/kg, dose response, single subcutaneous dose 30 nmol/kg, individual animal): 27.4 h | CL/F ([2]; male, Sprague Dawley, rat, plasma, sc, 30 nmol/kg, dose response, single subcutaneous dose 30 nmol/kg, individual animal, read-out: CL/F (converted)): 4.07 mL/h/kg | Tmax ([2]; male, Sprague Dawley, rat, plasma, sc, 30 nmol/kg, dose response, single subcutaneous dose 30 nmol/kg, individual animal, read-out: Tmax): 24 h | half-life ([2]; male, Sprague Dawley, rat, plasma, sc, 30 nmol/kg, dose response, single subcutaneous dose 30 nmol/kg, mean): 28.4 h | CL/F ([2]; male, Sprague Dawley, rat, plasma, sc, 30 nmol/kg, dose response, single subcutaneous dose 30 nmol/kg, mean, read-out: CL/F (converted)): 3.98 mL/h/kg | Tmax ([2]; male, Sprague Dawley, rat, plasma, sc, 30 nmol/kg, dose response, single subcutaneous dose 30 nmol/kg, mean, read-out: Tmax): 24 h | half-life ([2]; male, Sprague Dawley, rat, plasma, sc, 100 nmol/kg, dose response, single subcutaneous dose 100 nmol/kg, individual animal): 28.6 h | CL/F ([2]; male, Sprague Dawley, rat, plasma, sc, 100 nmol/kg, dose response, single subcutaneous dose 100 nmol/kg, individual animal, read-out: CL/F (converted)): 3.85 mL/h/kg | Tmax ([2]; male, Sprague Dawley, rat, plasma, sc, 100 nmol/kg, dose response, single subcutaneous dose 100 nmol/kg, individual animal, read-out: Tmax): 24 h | half-life ([2]; male, Sprague Dawley, rat, plasma, sc, 100 nmol/kg, dose response, single subcutaneous dose 100 nmol/kg, mean): 28.4 h | CL/F ([2]; male, Sprague Dawley, rat, plasma, sc, 100 nmol/kg, dose response, single subcutaneous dose 100 nmol/kg, mean, read-out: CL/F (converted)): 3.89 mL/h/kg | Tmax ([2]; male, Sprague Dawley, rat, plasma, sc, 100 nmol/kg, dose response, single subcutaneous dose 100 nmol/kg, mean, read-out: Tmax): 24 h | half-life ([2]; male, Sprague Dawley, rat, plasma, sc, 183 nmol/kg, single subcutaneous dose 183 nmol/kg, individual animal): 26.2 h | CL/F ([2]; male, Sprague Dawley, rat, plasma, sc, 183 nmol/kg, single subcutaneous dose 183 nmol/kg, individual animal, read-out: CL/F (converted)): 4.75 mL/h/kg | Tmax ([2]; male, Sprague Dawley, rat, plasma, sc, 183 nmol/kg, single subcutaneous dose 183 nmol/kg, individual animal, read-out: Tmax): 24 h | half-life ([2]; male, Sprague Dawley, rat, plasma, sc, 183 nmol/kg, single subcutaneous dose 183 nmol/kg, mean): 23.8 h | CL/F ([2]; male, Sprague Dawley, rat, plasma, sc, 183 nmol/kg, single subcutaneous dose 183 nmol/kg, mean, read-out: CL/F (converted)): 5.04 mL/h/kg | Tmax ([2]; male, Sprague Dawley, rat, plasma, sc, 183 nmol/kg, single subcutaneous dose 183 nmol/kg, mean, read-out: Tmax): 32 h | AUC0-inf ([2]; rat, plasma, sc, dose response, single subcutaneous dose 10 nmol/kg, male Sprague Dawley rats, mean, read-out: AUC0-inf): 2.85 µM·h | Cmax ([2]; rat, plasma, sc, dose response, single subcutaneous dose 10 nmol/kg, male Sprague Dawley rats, mean, read-out: Cmax): 49.8 nM | AUC0-inf ([2]; rat, plasma, sc, dose response, single subcutaneous dose 30 nmol/kg, male Sprague Dawley rats, mean, read-out: AUC0-inf): 7.76 µM·h | Cmax ([2]; rat, plasma, sc, dose response, single subcutaneous dose 30 nmol/kg, male Sprague Dawley rats, mean, read-out: Cmax): 129 nM | AUC0-inf ([2]; rat, plasma, sc, dose response, single subcutaneous dose 100 nmol/kg, male Sprague Dawley rats, mean, read-out: AUC0-inf): 26.3 µM·h | Cmax ([2]; rat, plasma, sc, dose response, single subcutaneous dose 100 nmol/kg, male Sprague Dawley rats, mean, read-out: Cmax): 386 nM | AUC0-inf ([2]; rat, plasma, sc, single subcutaneous dose 183 nmol/kg, male Sprague Dawley rats, mean, read-out: AUC0-inf): 36.8 µM·h | Cmax ([2]; rat, plasma, sc, single subcutaneous dose 183 nmol/kg, male Sprague Dawley rats, mean, read-out: Cmax): 583 nM | AUC0-inf ([2]; rat, plasma, male Sprague Dawley rats, single intravenous dose 183 nmol/kg, Mean, read-out: AUC0-inf): 86.8 µM·h | C0 ([2]; rat, plasma, male Sprague Dawley rats, single intravenous dose 183 nmol/kg, Mean, read-out: C0): 4610 nM | CL/F [2, 13]: 5.39 mL/h/kg and 4.99 mL/h/kg | T1/2 [2, 13]: 21.8 h and 23.5 h | Tmax [2, 13]: 48 h
Substance: [pGlu]GSPSGIVTS[αMeL]DVPT[Aib][αMeL]LQKILEQERAEKARQQAK([γGlu-AEEA-εLys-C20 diacid])EAAEILAQV-NH2 [SEQ ID NO: 22, Pyr-GSPSGIVTS αMeL DVPT Aib αMeL LQKILEQERAEKARQQAK(γE-(2-[2-(2-Amino-ethoxy)-ethoxy]-acetyl)-ϵK-CO-(CH2)18-CO2H)EAAEILAQV-NH2]
AUC0-inf [2, 7]: 2.73 µM·h and 2.81 µM·h and 3.02 µM·h | Cmax [2, 7]: 49.5 nM and 51.3 nM and 48.6 nM | AUC0-inf [2, 8]: 7.52 µM·h and 8.6 µM·h and 7.16 µM·h | Cmax [2, 8]: 126 nM and 132 nM and 128 nM | AUC0-inf [2, 9]: 26.7 µM·h and 26 µM·h and 26.3 µM·h | Cmax [2, 9]: 372 nM and 416 nM and 369 nM | AUC0-inf [2, 10]: 88.4 µM·h and 79.6 µM·h and 92.3 µM·h | C0 [2, 10]: 3240 nM and 5390 nM and 5200 nM | AUC0-inf [2, 13]: 38.9 µM·h and 34.3 µM·h and 37.1 µM·h | Cmax [2, 13]: 783 nM and 439 nM and 527 nM
